Source: patent EP0678516B1, “Preparation of 2-bromo-5-(2-bromo-2-nitrovinyl)-furan and its use as microcide” (CENTRO DE BIOACTIVOS QUIMICOS DE LA UNIVERSIDAD CENTRAL DE …, priority 1994, dated 1995)
In brackets after ≈: the same amount, converted by molar mass.

Legend:
Aspergillus sp. = assay: In vitro MIC (serial dilution); assay type: cell-based
Method: (§1) The antimicrobial sensitivity was first evaluated "in vitro" using the serial dilution method for bacteria and fungi. Other growth methods in agar cultures were included for other species. The liquid and solid mediums used were Mueller-Hinton, Tryptona Soya, Sabouraud Dextrosa, Sabouraud Maltose and other mediums in accordance with the cultural demands of the micro-organisms valued.
(§2) The temperature and incubation period was adjusted to conditions and characteristics of the micro-organisms used.
(§3) The Minimal Inhibitory Concentration (MIC) was calculated in terms of MIC50 and MIC90 in µg/ml.

Serratia marcescens = assay: In vitro MIC (serial dilution); assay type: cell-based
Method: as §1, §2, §3

Salmonella enteritidis = assay: In vitro MIC (serial dilution); assay type: cell-based; conditions: Salmonella enterica
Method: as §1, §2, §3

Salmonella oxford = assay: In vitro MIC (serial dilution); assay type: cell-based
Method: as §1, §2, §3

Enterobacter spp. = assay: In vitro MIC (serial dilution); assay type: cell-based
Method: as §1, §2, §3

Trichophyton rubrum = assay: In vitro MIC (serial dilution); assay type: cell-based
Method: as §1, §2, §3

Salmonella dublin = assay: In vitro MIC (serial dilution); assay type: cell-based; conditions: Salmonella enterica
Method: as §1, §2, §3

Salmonella choleraesuis = assay: In vitro MIC (serial dilution); assay type: cell-based; conditions: Salmonella enterica
Method: as §1, §2, §3

Candida pseudotropicalis = assay: In vitro MIC (serial dilution); assay type: cell-based; conditions: Kluyveromyces marxianus
Method: as §1, §2, §3

Pasteurella haemolytica = assay: In vitro MIC (serial dilution); assay type: cell-based; conditions: Mannheimia haemolytica
Method: as §1, §2, §3

Staphylococcus albus = assay: In vitro MIC (serial dilution); assay type: cell-based
Method: as §1, §2, §3

Staphylococcus aureus = assay: In vitro MIC (serial dilution); assay type: cell-based
Method: as §1, §2, §3

Candida parasilosis = assay: In vitro MIC (serial dilution); assay type: cell-based
Method: as §1, §2, §3

Leptospira pomona = assay: In vitro MIC (serial dilution); assay type: cell-based
Method: as §1, §2, §3

Escherichia coli = assay: In vitro MIC (serial dilution); assay type: cell-based
Method: as §1, §2, §3

Candida albicans = assay: In vitro MIC (serial dilution); assay type: cell-based
Method: as §1, §2, §3

Bacillus subtilis = assay: In vitro MIC (serial dilution); assay type: cell-based
Method: as §1, §2, §3

[1] = tested on: Klebsiella spp. (including K. pneumoniae); assay: In vitro MIC (serial dilution); assay type: cell-based
Method: as §1, §2, §3

Candida zeyfanoide = assay: In vitro MIC (serial dilution); assay type: cell-based
Method: as §1, §2, §3

Salmonella typhimurium = assay: In vitro MIC (serial dilution); assay type: cell-based; conditions: Salmonella enterica
Method: as §1, §2, §3

Haemophilus influenzae = assay: In vitro MIC (serial dilution); assay type: cell-based
Method: as §1, §2, §3

Proteus morganii = assay: In vitro MIC (serial dilution); assay type: cell-based; conditions: Morganella morganii
Method: as §1, §2, §3

Bacillus alvei = assay: In vitro MIC (serial dilution); assay type: cell-based; conditions: Paenibacillus alvei
Method: as §1, §2, §3

[2] = Chronic study, external application for six months; assay type: in vivo, Sprague Dawley rats; conditions: applied externally for a period of six months
From the text: Chronic studies of 2-bromo-5-(2-bromo-nitro-vinyl)-furan were made on Sprague Dawley rats.

Pseudomonas aeruginosa [3] = assay: Intramuscular treatment of stud bulls affected with piocianosis; assay type: in vivo
Method: The active principle was administered in a dose of 5-10 mg/kg of body mass by intramuscular route in bulls affected with piocianosis Pseudomonas aeruginosa. […] In clinical tests no allergic reactions were detected in animals (Table No.5).

Oral LD50 = assay type: in vivo, mice OF1; conditions: taken orally, tragacant gum as vehicle
From the text: (§4) Moreover, the anatomopathological elements and the clinical events were characterized during the experiments.

[4] = Ophthalmic irritability studies; assay type: in vivo
From the text: as §4

Pseudomonas aeruginosa [5] = assay: Infected burn wound treated with ointments; assay type: in vivo, guinea-pigs; conditions: concentration of ointment applied on 2 cm^2 infected burns
Method: The "in vivo" effectiveness of four ointments of 2-bromo-5-(2-bromo-2-nitro-vinyl)-furan was evaluated at 1, 0.5, 0.25 and 0.125% in hydrophislous ointment applying it on 2 cm^2 of burns provoked to guinea-pigs and subsequently infected with Pseudomonas aeruginosa by a burn wound in an area of 2 cm^2, using positive and negative control groups.

[6] = tested on: Streptococcus agalactiae and Staphylococcus aureus; assay: Intracisternal treatment of clinical mastitis; assay type: in vivo, femal oxes
From the text: The active principle in a concentration of 0.1 % is applied by intracisternal route daily for three consecutive days in femal oxes clinically affected by mastitis of morbid catarrh purulen course types, in which the isolated micro-organisms were Streptococcus agalactiae and Staphylococcus aureus. As a control medicament the mammary infusion of neomicine was used.

[7] = tested on: septic puerperal metritis; assay: Treatment of septic puerperal metritis; assay type: in vivo, female oxes; conditions: G-1 1.5% oil solution intrauterine, Tetracycline abdominal aorta route
Method: The treatment consisted in applying 40 ml for three consecutive days at intervals of 24 hours from the diagnosis of the disease process. Treatment was compared with intrasoric tetracyclin.

Percutaneous LD50 = assay type: in vivo, Sprague Dawley rats; conditions: interscapular region, 0.2 ml/10 g of body mass
From the text: as §4

[8] = 5-10 mg/kg of body mass, intramuscular route
[9] = 25 ill bulls, 5 treatments per animal, 5-10 mg/kg intramuscular

`O=[N+]([O-])C(Br)=Cc1ccc(Br)o1` [Product G-1, 2-bromo-5-(2-bromo-2-nitro-vinyl)-furan] showed an MIC50 (Aspergillus sp.) of 16.2 µg/mL (≈ 54.6 µM), an MIC90 (Aspergillus sp.) of 48.3 µg/mL (≈ 163 µM) and an MIC50 (Serratia marcescens) of 5.03 µg/mL (≈ 16.9 µM). For the same compound, the MIC90 (Serratia marcescens) was 10.9 µg/mL (≈ 36.9 µM), the MIC50 (Salmonella enteritidis) was 6.86 µg/mL (≈ 23.1 µM) and the MIC90 (Salmonella enteritidis) was 11.5 µg/mL (≈ 38.7 µM). For the same compound, the MIC50 (Salmonella oxford) was 4.42 µg/mL (≈ 14.9 µM), the MIC90 (Salmonella oxford) was 5.83 µg/mL (≈ 19.6 µM) and the MIC50 (Enterobacter spp.) was 5.3 µg/mL (≈ 17.9 µM). For the same compound, the MIC90 (Enterobacter spp.) was 17.2 µg/mL (≈ 57.8 µM), the MIC50 (Trichophyton rubrum) was 13.8 µg/mL (≈ 46.5 µM) and the MIC90 (Trichophyton rubrum) was 24 µg/mL (≈ 80.9 µM). For the same compound, the MIC50 (Salmonella dublin) was 4.38 µg/mL (≈ 14.8 µM), the MIC90 (Salmonella dublin) was 5.73 µg/mL (≈ 19.3 µM) and the MIC50 (Salmonella choleraesuis) was 5.57 µg/mL (≈ 18.8 µM). The MIC90 (Salmonella choleraesuis) was 10.5 µg/mL (≈ 35.4 µM), the MIC50 (Candida pseudotropicalis) was 1.92 µg/mL (≈ 6.47 µM) and the MIC90 (Candida pseudotropicalis) was 3.56 µg/mL (≈ 12 µM). The MIC50 (Pasteurella haemolytica) was 3.72 µg/mL (≈ 12.5 µM), the MIC90 (Pasteurella haemolytica) was 5.63 µg/mL (≈ 19 µM) and the MIC50 (Staphylococcus albus) was 10.2 µg/mL (≈ 34.5 µM). For the same compound, the MIC90 (Staphylococcus albus) was 19.8 µg/mL (≈ 66.8 µM), the MIC50 (Staphylococcus aureus) was 5.91 µg/mL (≈ 19.9 µM) and the MIC90 (Staphylococcus aureus) was 12.9 µg/mL (≈ 43.6 µM). For the same compound, the MIC50 (Candida parasilosis) was 3.56 µg/mL (≈ 12 µM), the MIC90 (Candida parasilosis) was 6.93 µg/mL (≈ 23.3 µM) and the MIC50 (Leptospira pomona) was 8.84 µg/mL (≈ 29.8 µM). It also gave an MIC90 (Leptospira pomona) of 11.7 µg/mL (≈ 39.3 µM), an MIC50 (Escherichia coli) of 7.53 µg/mL (≈ 25.4 µM) and an MIC90 (Escherichia coli) of 16 µg/mL (≈ 53.8 µM). It also gave an MIC50 (Candida albicans) of 3.11 µg/mL (≈ 10.5 µM), an MIC90 (Candida albicans) of 7.95 µg/mL (≈ 26.8 µM) and an MIC50 (Bacillus subtilis) of 2.27 µg/mL (≈ 7.65 µM). For the same compound, the MIC90 (Bacillus subtilis) was 5.08 µg/mL (≈ 17.1 µM), the MIC50 [1] was 11 µg/mL (≈ 37 µM) and the MIC90 [1] was 21.3 µg/mL (≈ 71.9 µM). It also gave an MIC50 (Candida zeyfanoide) of 1.92 µg/mL (≈ 6.47 µM), an MIC90 (Candida zeyfanoide) of 3.56 µg/mL (≈ 12 µM) and an MIC90 (Salmonella typhimurium; TYPHIMURIUM, read-out: MIC90 values) of 17.7 µg/mL (≈ 59.5 µM). The MIC50 (Salmonella typhimurium; Salmonella typhimurium) was 7.43 µg/mL (≈ 25 µM), the MIC50 (Haemophilus influenzae) was 3.51 µg/mL (≈ 11.8 µM) and the MIC90 (Haemophilus influenzae) was 39.2 µg/mL (≈ 132 µM). It also gave an MIC50 (Proteus morganii) of 3.13 µg/mL (≈ 10.5 µM), an MIC90 (Proteus morganii) of 10.2 µg/mL (≈ 34.2 µM) and an MIC50 (Bacillus alvei) of 2.21 µg/mL (≈ 7.44 µM). For the same compound, the MIC90 (Bacillus alvei) was 5.08 µg/mL (≈ 17.1 µM), the “haematological, haemochemical and histopathological studies” value [2] was “did not lead to any major problems in the different organs and tissues analysed” and the “allergic reactions to the medicament” value (Pseudomonas aeruginosa [3]; [8]) was “without any allergic reactions to the medicament being detected”. The “seminal parameters established as quality control” value (Pseudomonas aeruginosa [3]; [8]) was “no alterations being detected”, the “Recuperated (animals)” value (Pseudomonas aeruginosa [3]; [9]) was 21 and the percentage of effectiveness (Pseudomonas aeruginosa [3]; [9]) was 84%. For the same compound, the “bacteriological tests carried out in the semen” value (Pseudomonas aeruginosa [3]; at 3,7,14,21 and 28 days) was “negative at germ”, the “cytotoxicity and morphological characteristic of spermatozoid” value (Pseudomonas aeruginosa [3]; frozen semen of treated bulls) was “absence of cytotoxicity and variations in morphological characteristic of spermatozoid” and the “Lethal Average Dose (LD50)” value (Oral LD50; mice OF1 females) was 1731.4 mg/kg of body mass. For the same compound, the “Lethal Average Dose (LD50)” value (Oral LD50; mice OF1 male) was 1835.8 mg/kg of body mass, the “concentrations at which no irritating effects were made on the eye structure” value [4] was “lower than 1.25%” and the “effective dose 50 (ED50)” value (Pseudomonas aeruginosa [5]) was 0.125%. For the same compound, the “Recuperated n (affected parts)” value ([6]; G-I 0.1% intracisternal daily for three days (57 parts), neomicine mammary infusion (12 parts)) was 56, the “Recuperated % (clinical recuperation of the affected parts)” value ([6]; G-I 0.1% intracisternal daily for three days, neomicine mammary infusion) was 98.25% and the Recuperated n ([7]; 27 females, 19 females) was 20. The “IIA (Artificial insemination index)” value [7] was 1.091±0.30a, the Recuperated % [7] was 74.1% and the “T-R (Average of treatment interval of clinical recuperation)” value [7] was 17.7 days. For the same compound, the “IIA (Artificial insemination index)” value ([7]; listed as new formula) was 1.09 ± 0.30, the LD50 (Percutaneous LD50; female Sprague Dawley rats) was 14.7% and the LD50 (Percutaneous LD50; male Sprague Dawley rats) was 15.8%.
